Measured values: paper PMC10037499, “High-Throughput Screen Reveals the Structure–Activity Relationship of the Antimicrobial Lasso Peptide Ubonodin” (ACS Central Science, 2023)
Where a SMILES comes first, the peptide text is derived from it.

How the values were obtained:
B. cenocepacia AU0756 = system: B. cenocepacia AU0756
How it was run: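 Ubonodin variants were tested by broth microdilution following CLSI guidelines against clinical Burkholderia cenocepacia isolates AU0756 and AU24362.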

[1] = system: RNA polymerase (RNAP) in E. coli MC1061; experiment: High-throughput growth-based screen with NGS (enrichment value) for RNA polymerase inhibition; format: cell-based; parameters: key to Experimental observation (enrichment observed in the screen): Dropout: Many variants inhibit RNAP so strongly that they cannot be detected by NGS after IPTG induction (referred to as dropout variants); conditions: Table S4; variants whose MICs were tested
How it was run: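 E. coli MC1061 carrying ubonodin single/double variant plasmid libraries was grown and induced with 10 µM or 100 µM IPTG; surviving colonies were sequenced by NGS. Enrichment value = log2 of variant frequency post-IPTG over frequency in the cloning transformation library; depletion indicates RNAP inhibition.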

E. coli MC1061 = experiment: Spot dilution assay of E. coli producing the ubonodin variant from pUboABC; format: cell-based; conditions: variant in pUboABC backbone in E. coli MC1061, induction with 100 μM IPTG, ten-fold serial dilutions, biological duplicates
How it was run: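 E. coli MC1061 carrying the plasmids was grown at 37 °C in LB with 100 μg/mL ampicillin to OD600 0.3, then induced with 100 μM IPTG. Samples taken before induction and at later timepoints were PBS-washed, spotted as ten-fold dilutions on ampicillin/0.2% glucose LB plates, and imaged after 16 h at 37 °C.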

In the case of `CC[C@H](C)[C@@H]1NC(=O)[C@H](Cc2c[nH]cn2)NC(=O)CNC(=O)[C@H](CC(=O)O)NC(=O)CNC(=O)CNC(=O)CC[C@@H](C(=O)N[C@@H](Cc2ccc(O)cc2)C(=O)N[C@@H](Cc2ccccc2)C(=O)N[C@@H](CC(N)=O)C(=O)N[C@@H](CCCNC(=N)N)C(=O)N2CCC[C@H]2C(=O)N[C@@H](CCSC)C(=O)N[C@@H](Cc2c[nH]cn2)C(=O)N2CCC[C@H]2C(=O)N[C@@H](Cc2c[nH]cn2)C(=O)N[C@@H](CC(=O)O)C(=O)N[C@@H](Cc2c[nH]c3ccccc23)C(=O)N[C@@H](CCC(N)=O)C(=O)N[C@H](C(=O)N[C@@H](CCSC)C(=O)N[C@@H](CC(=O)O)C(=O)N[C@@H](CO)C(=O)NCC(=O)N[C@@H](Cc2ccc(O)cc2)C(=O)N[C@@H](Cc2ccc(O)cc2)C(=O)NCC(=O)O)[C@@H](C)CC)NC(=O)[C@H](C)NC1=O` [S5H I16P] (HELM PEPTIDE1{G.G.D.G.H.I.A.E.Y.F.N.R.P.M.H.P.H.D.W.Q.I.M.D.S.G.Y.Y.G}$PEPTIDE1,PEPTIDE1,1:R1-8:R3$$$V2.0), the “B. cenocepacia AU0756 MIC” value (B. cenocepacia AU0756) is reported as 8 µM, the “Experimental observation (enrichment observed in the screen)” value [1] is reported as “Dropout” and the “Inhibits Growth” value (E. coli MC1061) is reported as “Yes”.
